Experimental data as given in patent US20260183297A1, “SELECTION OF PATIENTS FOR THE TREATMENT OF FADS1-MEDIATED DISEASES OR DISORDERS USING FADS-1 INHIBITORS” (AMGEN INC., priority 2022, published 2026).
“Also recorded” adds a separate entry of the source.

Legend:
FADS1 = biological target: T1, FADS1 (Mus musculus, UniProt Q920L1); assay: In vivo FADS1 activity measurement using blood plasma (13C5-DGLA to 13C5-AA conversion); settings: DIO mice, 24 hours after dosing
T1 construct: Liver from ^13C5-DGLA dosed DIO mice was collected for pharmacodynamic (PD) analysis; from tissue; host or cells: living DIO C57Bl/6 mice; 13C5-DGLA to 13C5-AA conversion read in liver (A4) or blood plasma (A5)
T1 sequence (Q920L1 1-447): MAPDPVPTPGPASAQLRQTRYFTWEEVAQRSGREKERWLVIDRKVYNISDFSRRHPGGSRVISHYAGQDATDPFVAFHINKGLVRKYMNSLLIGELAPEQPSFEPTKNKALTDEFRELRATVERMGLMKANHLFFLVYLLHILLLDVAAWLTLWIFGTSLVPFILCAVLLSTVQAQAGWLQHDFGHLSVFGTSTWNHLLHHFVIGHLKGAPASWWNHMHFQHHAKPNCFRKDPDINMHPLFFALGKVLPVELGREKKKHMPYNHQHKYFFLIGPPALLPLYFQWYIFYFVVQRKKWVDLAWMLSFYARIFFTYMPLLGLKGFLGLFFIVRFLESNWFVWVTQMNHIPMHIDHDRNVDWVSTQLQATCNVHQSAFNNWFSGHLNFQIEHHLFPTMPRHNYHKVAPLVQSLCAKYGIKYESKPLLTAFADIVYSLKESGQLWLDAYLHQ
Protocol: FADS1 activity in the presence of Compounds B-E was also measured using blood plasma (in addition to using the liver). The above procedures were perforned to measure the in vivo activity of FADS1 using the liver. The following general procedures were used to measure FADS1 activity using blood plasma. Diet-induced obese (DIO) mice that were on 12 weeks of high fat diet were used to determine the pharmacokinetic (PK) and pharmacodynamic (PD) properties of test compounds. To determine the target coverage at 24 hours after dosing with a test compound (e.g., Compounds B-E, shown below), mice were IP dosed with 0.1 ml solution of ^13C5-DGLA (2 mM in 18.42 mM Na2CO3 buffer). Necropsy were performed at 30 minutes post ^13C5-DGLA dosing. EDTA Plasma was collected for PK and PD analysis.
For PD analysis, 50 μl of plasma or standards (pooled untreated mouse plasma with ^13C5-DGLA and ^13C5-AA added at concentration of 4.57 nM to 10 uM) were mixed with 10 μl of 90% methanol and 10 μl of 50 μg/mL of ALA-D14 as an internal standard (100 μM alpha-linolenic acid-d14 (ALA-d14, Cayman Chemical)) in a 96 well plate. 490 μl of chloroform:methanol (2:1) were added to each well. Plates were plated on a shaker for 5 min prior to adding 66.5 μl water. The plates were shaken for another 5 minutes, followed by centrifugation at 2000 RPM for 5 minutes. The bottom organic layer was transferred to a clean 96 well plate. 333 ul of chloroform:methanol (2:1) were added to the to the remaining liquid phase in the original plate. After 5 min of shaking, the plate was centrifuged at 2000 RPM for 5 minutes. The bottom layer was collected and combined with the first bottom layer. The combined layers were evaporated to dryness under a constant stream of nitrogen gas. After the plate has been dried, 100 μl of 2N NaOH was added to the mixture for subsequent saponification at 65° C. for 1 hour. The samples were then cooled to room temperature and the mixture was then acidified with 50 μl of formic acid followed by two consecutive chloroform:methanol (2:1) extractions. 500 μl of Chloroform:methanol (2:1) was added and the mixture thoroughly mixed by shaking. The plate was then centrifuged at 2,000 rpm for 5 min. The bottom chloroform phase was transferred to a new 2 mL 96 well plate and the remaining aqueous layer was extracted with another 250 μl of chloroform:methanol (2:1). The organic extracts were combined, and the solvent was evaporated to dryness by placing the plate under nitrogen. Extracts were then dissolved in 200 μl of acetonitrile/methanol (1:1). The plate was placed on a shaker for 30 minutes to ensure thorough mixing and dissolution of the extracted fatty acids. The plate was then centrifuged at 2000 RPM for 5 minutes. 80 μl of the samples were transferred to a new 96 well polypropylene plate for analysis on a LC-MS/MS for the following analytes: ^13C5-DGLA, ^13C5-AA, with ALA-d14 as the internal standard. Briefly describing the LC-MS/MS method: 20 μl of sample was injected onto a Poroshell 120 EC-C18 3.0×50 mm, 1.9 μm id column. Mobile phases were 80% acetonitrile containing 5 mM ammonium acetate for mobile phase A and 99.5% acetonitrile containing 5 mM ammonium acetate for mobile phase B. The LC gradient was a 3 min long method at a flow rate of 0.4 mL/minute consisting of 45% B at 0 to 0.5 min, followed by a 45% B to 100% B from 0.5 to 2.0 min; the system was then maintained at 100% B from 2.0 min to 2.5 min and returned to 45% B at 2.6 min and maintained until end of the method. The analyte peak areas were quantified by using the SCIEX Analyst software. To determine the degree of FADS1 inhibition, the in vivo FADS1 activity, POC, percent of inhibition, and in vivo IC50 values are calculated as described above for liver FADS1 activity measurement.

[1] = Chronic FADS1 inhibition study in DIO mice (body weight, food intake); assay type: in vivo, mouse; settings: for lower body weight relative to vehicle-treated mice: 54 days
Protocol: Body weight was measured daily and used for dosing calculations. A 4-hour fasted retro-orbital blood sample was collected at baseline and day 46 and used for insulin, cholesterol, and triglyceride analysis. A 3-day average food consumption was measured on days 39-41. All animals received 0.1 ml of 2 mM ^13C5-DGLA by IP injection 23.5 hours after the last PO gavage with the different treatment to allow for 30 minutes of exposure prior to necropsy to determine the residual in vivo FADS1 activity.

[2] = mouse, single oral dose 10 mg/kg
[3] = mouse, single oral dose 30 mg/kg

SMILES	Plasma Avg % Conversion (FADS1; single oral dose 3 mg/kg)	Plasma Avg % Conversion (FADS1; single oral dose 10 mg/kg)	Plasma Avg % Conversion (FADS1; single oral dose 30 mg/kg)	inhibition at 3 mg/kg (FADS1; mouse, single oral dose 3 mg/kg)	inhibition at 10 mg/kg (FADS1; [2])	inhibition at 30 mg/kg (FADS1; [3])	Plasma Avg % Conversion (FADS1; single oral dose 50 mg/kg)	inhibition at 50 mg/kg (FADS1; mouse, single oral dose 50 mg/kg)	lower body weight relative to vehicle-treated mice ([1]; 10 mg/kg daily oral)	lower body weight relative to vehicle-treated mice ([1]; 30 mg/kg daily oral)	food intake ([1]; 10 and 30 mg/kg daily oral)
N#Cc1ccn2c(=O)c(-c3cnn(CC(F)(F)C(F)(F)F)c3)c(C(F)(F)F)nc2c1 [Compound C]	10.1%	4.3%	1.7%	83.3%	92.8%	97.1%	–	–	–	–	–
COc1ccn2c(=O)c(-c3cnn(CC(F)(F)C(F)(F)F)c3)c(C(F)(F)F)nc2n1 [Compound B]	–	2.9%	2.2%	–	95.2%	96.3%	1.9%	96.9%	–	–	–
COc1ccn2c(=O)c(-c3cnn(CC(F)(F)C(F)(F)F)c3)c(C(F)(F)F)nc2c1 [Compound A, 8-methoxy-3-(1-(2,2,3,3,3-pentafluoropropyl)-1H-pyrazol-4-yl)-2-(trifluoromethyl)-4H-pyrido[1,2-a]pyrimidin-4-one]	–	–	–	–	–	–	–	–	17.9%	21.1%	without affecting food intake; also recorded: No significant differences
